Assay results as given in patent US8784824B2, “Compositions and methods for treatment of angiogenesis in pathological lesions” (Philogen S.p.A., priority 2000, dated 2014).

Assays:
[1] = tested on: tumor cells; test: Block of tumor cell proliferation by L19-IFN-γ fusion proteins; assay type: cell-based; conditions: typical IFN-γ-dependent fashion
[2] = target: T1, ED-B domain of fibronectin (Homo sapiens, UniProt P02751); test: Binding of L19-IFN-γ fusion proteins to ED-B (ELISA, BIAcore)
[3] = tested on: C51 murine carcinoma cell line; test: Crystal violet cytotoxicity assay; assay type: cell-based; conditions: Mus musculus; C51 cells; crystal violet staining (FIG. 9); read-out: 50% inhibitory concentrations towards C51 cells
Description: C51 murine adenocarcinoma cells were seeded in 24-well plates at a density between […] per well. The plates were incubated overnight at 37° C. in humidified, 5% CO2 atmosphere to ensure the growth of the monolayer. The medium was then removed and different concentrations of doxorubicin was added. Relative cell numbers in treated and control plates were determined by crystal violet staining. Quantification is possible by solubilising the absorbed dye in ethanol 70% and determining optical density at 590 nm where absorbance is directly proportional to cell number. Relative cell number can be expressed as T/C=T−C0/C−C0×100 [T=absorbance of treated cultures, C=absorbance of control cultures, and C0=absorbance of cultures at the start of incubation (t=0)]. The results of this study are depicted in FIG. 9.

[4] = intravenously injected; cited from earlier work
[5] = tested on: FE8 tumors (ras-transformed rat fibroblasts); test: In vivo treatment with scFv-TF fusion protein, FE8 tumors; set-up: species or system mouse; conditions: large FE8 tumors; one injection of 20 μg (FIG. 7)
Description: (§1) Tumor bearing mice were obtained by subcutaneous injection of 10^6 of FE8 rat fibroblast, C51 colon carcinoma or F9 teratocarcinoma cells (Tarli et al., 1999). The cells were allowed to grow until the tumoral volume could be measured by a slide-calliper.
(§2) Mice with tumors of volume ca 1500 mm^3 were injected with a single dose of with 20 ug scFv-TF fusion protein corresponding to 10 ug TF in 200 ul saline. The injection was not repeated. Mice were monitored by tumor volume, weight and appearance including photographic documentation.

[6] = tested on: subcutaneously implanted F9 murine teratocarcinoma; test: Biodistribution of radioiodinated scFv(L19)-TF; assay type: in vivo, mouse; conditions: injected intravenously, quantitative biodistribution (FIG. 3)
Description: The in vivo targeting performance was analysed by biodistribution analysis as described in Tarli et al. (1999). Briefly, purified scFv(L19)-TF fusion protein was radioiodinated and injected into nude mice with subcutaneously implanted F9 murine teratocarcinoma. Mice were sacrificed at 24 hours after injection. The organs were weighed and the radioactivity counted. Targeting results of representative organs are expressed as percent of the injected dose per gram of tissue (% ID/g).

[7] = target: T1, ED-B domain of fibronectin; test: Antigen binding assays of scFv(L19)-TF (ELISA, BIAcore, antigen column)
Description: The immunoreactivity of the scFv-TF fusion protein was analyzed by ELISA immunoassay, by BIAcore and by affinity chromatography on antigen column, as described (Neri et al., 1996; D. Neri et al. (1997) Nature Biotechnology, 15, 1271-1275.; Tarli et al., 1999).

[8] = tested on: C51 murine carcinoma; test: In vivo treatment with scFv-TF fusion protein, C51 tumors; set-up: species or system mouse
Description: as §1
(§3) Mice with tumors of volume ca 200-300 mm^3 were injected with 20 ug scFv-TF fusion protein corresponding to 10 ug TF in 200 ul saline. The injection was repeated after 48 and 96 hours. Mice were monitored by tumor volume, weight and appearance including photographic documentation.
as §2

[9] = tested on: FXa; test: Enzymatic activity of TF moiety, Spectrozyme FXa assay; assay type: biochemical; conditions: method of Ruf et al
Description: The enzymatic activity of the scFv-TF fusion protein was analyzed using the Spectrozyme FXa assay (American Diagnostica, Pfungstadt, Germany) as described by Ruf et al (1991).

[10] = tested on: F9 murine teratocarcinoma, C51 murine carcinoma or FE8 tumors; test: Tumor infarction after scFv-TF injection in tumor bearing mice; assay type: in vivo, mouse; conditions: few hours after injection
Description: The antitumor activity of scFv(L19)-TF and scFv(D1.3)-TF was tested in mice bearing the F9 murine teratocarcinoma, the C51 murine carcinoma or FE8 tumors (derived from subcutaneously implanted ras-transformed rat fibroblasts). Experiments were performed both in mice bearing small tumors and in mice bearing very large tumors.
as §1

[11] = tested on: F9 murine teratocarcinoma; test: In vivo treatment with scFv-TF fusion protein, F9 tumors; set-up: species or system mouse; conditions: small F9 tumors; three injections of 20 μg (FIG. 4)
Description: as §1, §3

[12] = target: recombinant human fibronectin fragment 7B89 (human) (UniProt P02751); test: 125I-labelled protein on a 7B89/Sepharose column
Chain of recombinant human fibronectin fragment 7B89 (human) (P02751 1173-1537 limits assumed): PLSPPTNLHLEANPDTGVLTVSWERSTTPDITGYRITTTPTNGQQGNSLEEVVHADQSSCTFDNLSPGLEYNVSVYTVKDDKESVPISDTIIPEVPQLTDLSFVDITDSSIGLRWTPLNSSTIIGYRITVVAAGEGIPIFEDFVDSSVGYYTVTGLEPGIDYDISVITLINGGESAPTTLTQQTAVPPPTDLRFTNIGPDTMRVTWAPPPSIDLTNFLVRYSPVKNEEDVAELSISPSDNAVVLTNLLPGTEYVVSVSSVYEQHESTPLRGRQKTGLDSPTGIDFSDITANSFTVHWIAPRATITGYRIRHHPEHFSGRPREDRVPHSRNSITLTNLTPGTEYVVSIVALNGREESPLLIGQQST

T1 sequence (P02751 1271-1359 limits assumed): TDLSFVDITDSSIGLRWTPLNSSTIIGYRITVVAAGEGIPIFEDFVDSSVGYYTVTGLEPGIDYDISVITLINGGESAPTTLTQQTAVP

Molecule: scFv(L19)-(IFN-γ)2: IFN-γ homodimer (two IFN-γ joined by a polypeptide linker) fused at the C-terminal extremity of scFv(L19)
- block of proliferation of tumor cells [1]: block the proliferation of tumor cells
- binding to the ED-B domain of fibronectin [2]: strong binding

Molecule: COc1cccc2c1C(=O)c1c(O)c3c(c(O)c1C2=O)C[C@@](O)(C(=O)CO)C[C@@H]3O[C@H]1C[C@H](N)[C@H](O)[C@H](C)O1 [doxorubicin, Doxorubicin]
- IC50 [3]: ~100 nM
- maximal tolerated dose [4]: 8 mg/kg

Molecule: scFv(L19)-IFN-γ: IFN-γ monomer fused at the C-terminal extremity of scFv(L19)
- block of proliferation of tumor cells [1]: block the proliferation of tumor cells
- binding to the ED-B domain of fibronectin [2]: bind with high-affinity

Molecule: scFv(L19)-TF: scFv(L19) specific for ED-B domain of fibronectin genetically fused to truncated tissue factor
- antitumor effect on tumor growth [5]: stopped tumor growth
- ability to target solid tumors [6]: target solid tumors
- activity of the antibody moiety [7]: active
- antitumor effect on tumor growth ([8]; large C51 tumors, one injection of 20 μg (FIG. 6)): stopped tumor growth
- reduction of growth rate ([8]; small C51 tumors, three injections of 20 μg (FIG. 5)): approx. 50%
- activity of the TF moiety [9]: active
- tumor infarction [10]: rapid and extensive tumor infarction
- reduction of growth rate [11]: approx. 50%

Molecule: L19-IL2 fusion protein (from UniProt P60568 21-153)
- immunoreactive fraction [12]: > 90%
